Laboratory results taken from the supplement of paper PMC11061612.

Assays:
Experiment in all cases: combination Emax (second highest fraction inhibited in the dose matrix, 72 h); higher = more inhibition; extreme values may be limits of the assay
[1] = tested on: Calu-3 (Lung Adenocarcinoma)
Procedure, shortened: (§1)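 Cell lines in DMEM/F12 or RPMI with 10% FBS were plated in 1536-well plates, held 24 hours at 37°C, 5% CO2, then given two-drug dose matrices for 72 hours (DMSO typically 0.2%). Viability was read by CellTiter-Glo 2.0 luminescence and scaled as inhibition from 0 (vehicle wells) to 1 (blank wells). Combination Emax is the second-highest inhibition in the matrix; Bliss excess is observed combination effect minus expected EA + EB − EA·EB, EA and EB being single-agent effects.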

KELLY (Neuroblastoma) = tested on: KELLY (Neuroblastoma)
Procedure, shortened: as §1

[2] = tested on: TE-15 (Esophageal Squamous Cell Carcinoma)
Procedure, shortened: as §1

[3] = tested on: LNCaP-Clone-FGC (Prostate Carcinoma)
Procedure, shortened: as §1

[4] = tested on: TCCSUP (Bladder Carcinoma)
Procedure, shortened: as §1

[5] = tested on: CaR-1 (Colorectal Carcinoma)
Procedure, shortened: as §1

[6] = tested on: LU-135 (Small Cell Lung Carcinoma)
Procedure, shortened: as §1

[7] = tested on: KYSE-520 (Esophageal Squamous Cell Carcinoma)
Procedure, shortened: as §1

[8] = tested on: Daoy (Other Solid Carcinomas)
Procedure, shortened: as §1

[9] = tested on: TE-9 (Esophageal Squamous Cell Carcinoma)
Procedure, shortened: as §1

HOS (Osteosarcoma) = tested on: HOS (Osteosarcoma)
Procedure, shortened: as §1

[10] = tested on: OVCA420 (Ovarian Carcinoma)
Procedure, shortened: as §1

[11] = tested on: MFE-296 (Endometrial Carcinoma)
Procedure, shortened: as §1

[12] = tested on: HuP-T4 (Pancreatic Carcinoma)
Procedure, shortened: as §1

[13] = tested on: CCRF-CEM (T-Lymphoblastic Leukemia)
Procedure, shortened: as §1

[14] = tested on: ME-1 (Acute Myeloid Leukemia)
Procedure, shortened: as §1

[15] = tested on: RC-K8 (B-Cell Non-Hodgkin's Lymphoma)
Procedure, shortened: as §1

[16] = tested on: NCI-H2085 (Non-Small Cell Lung Carcinoma)
Procedure, shortened: as §1

[17] = tested on: DEL (T-Cell Non-Hodgkin's Lymphoma)
Procedure, shortened: as §1

ES4 (Ewing's Sarcoma) = tested on: ES4 (Ewing's Sarcoma)
Procedure, shortened: as §1

| SMILES | combination Emax [1] | combination Emax (KELLY (Neuroblastoma)) | combination Emax [2] | combination Emax [3] | combination Emax [4] | combination Emax [5] | combination Emax [6] | combination Emax [7] | combination Emax [8] | combination Emax [9] | combination Emax (HOS (Osteosarcoma)) | combination Emax [10] | combination Emax [11] | combination Emax [12] | combination Emax [13] | combination Emax [14] | combination Emax [15] | combination Emax [16] | combination Emax [17] | combination Emax (ES4 (Ewing's Sarcoma)) |
| --- | --- | --- | --- | --- | --- | --- | --- | --- | --- | --- | --- | --- | --- | --- | --- | --- | --- | --- | --- | --- |
| NC1(C(=O)N[C@@H](CCO)c2ccc(Cl)cc2)CCN(c2ncnc3[nH]ccc23)CC1 [Capivasertib] + COc1nnc2ccc(N3CCC(c4ccc(OCCN5CCN(C)C(=O)[C@H]5C)cc4)CC3)nn12 [AZD5153] (first compound max 10 µM, 7x7, partner max 1 µM) | 0.749 | 0.336 | 0.693 | 0.993 | 0.35 | 0.648 | 0.969 | 0.668 | 0.676 | 0.354 | 0.632 | 0.762 | 0.694 | 0.442 | 0.905 | 0.402 | 0.761 | 0.6 | 0.893 | 0.624 |
| COc1nnc2ccc(N3CCC(c4ccc(OCCN5CCN(C)C(=O)[C@H]5C)cc4)CC3)nn12 [AZD5153] + CC1(C)CCC(CN2CCN(c3ccc(C(=O)NS(=O)(=O)c4ccc(NCC5CCOCC5)c([N+](=O)[O-])c4)c(Oc4cnc5[nH]ccc5c4)c3)CC2)=C(c2ccc(Cl)cc2)C1 [Venetoclax] (first compound max 1 µM, 7x7, partner max 1 µM) | 0.621 | 0.367 | 0.503 | 0.743 | 0.252 | 0.384 | 0.98 | 0.615 | 0.487 | 0.13 | 0.454 | 0.792 | 0.27 | 0.485 | 0.562 | 1 | 0.738 | 0.404 | 0.809 | 0.616 |
| C[C@@H](c1ccc2nccn2c1)n1nnc2ncc(-c3cnn(C)c3)nc21 [Savolitinib] + CC1(C)CCC(CN2CCN(c3ccc(C(=O)NS(=O)(=O)c4ccc(NCC5CCOCC5)c([N+](=O)[O-])c4)c(Oc4cnc5[nH]ccc5c4)c3)CC2)=C(c2ccc(Cl)cc2)C1 [Venetoclax] (first compound max 1 µM, 7x7, partner max 1 µM) | 0.153 | 0.357 | 0.287 | 0.0523 | 0.143 | 0.171 | 0.114 | 0.149 | 0.152 | 0.152 | 0.205 | 0.0542 | 0.0764 | 0.0793 | 0.124 | 1 | 0.129 | 0.107 | 0.0701 | 0.113 |
| CN(CCO)CC[C@H](CSc1ccccc1)Nc1ccc(S(=O)(=O)NC(=O)c2ccc(N3CCC([C@@H](O)c4ccccc4-c4ccc(Cl)cc4)CC3)cc2)cc1S(=O)(=O)C(F)(F)F [AZD4320] + CCN(CCO)CCCOc1ccc2c(Nc3cc(CC(=O)Nc4cccc(F)c4)[nH]n3)ncnc2c1 [AZD2811] (first compound max 1 µM, 7x7, partner max 1 µM) | 0.168 | 0.892 | 0.141 | 0.245 | 0.543 | 0.208 | 1 | 0.292 | 0.715 | 0.451 | 0.12 | 0.174 | 0.11 | 0.274 | 1 | 1 | 0.917 | 0.692 | 0.804 | 0.631 |
| Cn1cnc2c(F)c(Nc3ccc(Br)cc3Cl)c(C(=O)NOCCO)cc21 [Selumetinib] + CCN(CCO)CCCOc1ccc2c(Nc3cc(CC(=O)Nc4cccc(F)c4)[nH]n3)ncnc2c1 [AZD2811] (first compound max 10 µM, 7x7, partner max 1 µM) | 0.134 | 0.645 | 0.492 | 0.284 | 0.217 | 0.406 | 0.933 | 0.428 | 0.356 | 0.175 | 0.198 | 0.493 | 0.125 | 0.421 | 0.968 | 0.413 | 0.443 | 0.492 | 0.965 | 0.145 |
| Cn1cnc2c(F)c(Nc3ccc(Br)cc3Cl)c(C(=O)NOCCO)cc21 [Selumetinib] + C=CCn1c(=O)c2cnc(Nc3ccc(N4CCN(C)CC4)cc3)nc2n1-c1cccc(C(C)(C)O)n1 [AZD1775] (first compound max 10 µM, partner max 1 µM) | 0.143 | 1 | 0.74 | 0.625 | 0.429 | 0.288 | 0.583 | 0.595 | 0.844 | 0.231 | 0.222 | 0.508 | 0.163 | 0.396 | 0.996 | 0.484 | 0.72 | 0.271 | 1 | 0.433 |
| CN(C)CCCOc1ccc(-c2ccc3ncc4c(c3c2)n(C2CCOCC2)c(=O)n4C)cn1 [AZD0156] + O=C(c1cc(Cc2n[nH]c(=O)c3ccccc23)ccc1F)N1CCN(C(=O)C2CC2)CC1 [Olaparib] (first compound max 3 µM, partner max 3 µM) | 0.184 | 0.607 | 0.253 | 0.639 | 0.279 | 0.207 | 0.426 | 0.324 | 0.427 | 0.353 | 0.241 | 0.23 | 0.228 | 0.289 | 0.46 | 0.224 | 0.318 | 0.224 | 0.78 | 0.658 |
| COc1nnc2ccc(N3CCC(c4ccc(OCCN5CCN(C)C(=O)[C@H]5C)cc4)CC3)nn12 [AZD5153] + C[C@@H]1COCCN1C2=NC(=NC(=C2)C3(CC3)[S@](=N)(=O)C)C4=C5C=CNC5=NC=C4 [AZD6738] (first compound max 1 µM, 7x7, partner max 10 µM) | 0.719 | 0.983 | 0.889 | 0.791 | 0.566 | 0.518 | 1 | 0.681 | 0.835 | 0.271 | 0.704 | 0.807 | 0.74 | 0.626 | 0.993 | 0.651 | 0.896 | 0.653 | 1 | 0.942 |
| Cn1cnc2c(F)c(Nc3ccc(Br)cc3Cl)c(C(=O)NOCCO)cc21 [Selumetinib] + C[C@@H]1COCCN1C2=NC(=NC(=C2)C3(CC3)[S@](=N)(=O)C)C4=C5C=CNC5=NC=C4 [AZD6738] (first compound max 10 µM, 7x7, partner max 10 µM) | 0.408 | 0.952 | 0.834 | 0.673 | 0.546 | 0.395 | 0.753 | 0.534 | 0.882 | 0.147 | 0.529 | 0.562 | 0.339 | 0.568 | 0.963 | 0.469 | 0.87 | 0.35 | 1 | 0.864 |
| CC1(C)CCC(CN2CCN(c3ccc(C(=O)NS(=O)(=O)c4ccc(NCC5CCOCC5)c([N+](=O)[O-])c4)c(Oc4cnc5[nH]ccc5c4)c3)CC2)=C(c2ccc(Cl)cc2)C1 [Venetoclax] + C=CCn1c(=O)c2cnc(Nc3ccc(N4CCN(C)CC4)cc3)nc2n1-c1cccc(C(C)(C)O)n1 [AZD1775] (first compound max 1 µM, partner max 1 µM) | 0.218 | 1 | 0.796 | 0.689 | 0.475 | 0.246 | 0.688 | 0.595 | 0.873 | 0.691 | 0.406 | 0.384 | 0.3 | 0.378 | 1 | 1 | 0.815 | 0.398 | 1 | 0.437 |
| C[C@@H](c1ccc2nccn2c1)n1nnc2ncc(-c3cnn(C)c3)nc21 [Savolitinib] + CN(CC[C@H](CSC1=CC=CC=C1)NC2=C(C=C(C=C2)S(=O)(=O)NC(=O)C3=CC=C(C=C3)N4CCC(CC4)[C@H](C5=CC=CC=C5C6=CC=C(C=C6)Cl)O)S(=O)(=O)C(F)(F)F)CCO [AZD4320] (first compound max 1 µM, 7x7, partner max 1 µM) |  |  |  | 0.258 | 0.194 |  | 1 | 0.2 | 0.139 |  |  | 0.192 | 0.2 | 0.124 |  |  | 0.504 |  | 0.217 | 0.557 |
| Cc1c2c(nn1C)CSCc1cc(n(C)n1)CSc1cc(c3ccccc3c1)OCCCc1c(C(=O)O)n(C)c3c-2c(Cl)ccc13 [AZD5991] + C1CN(CCC1(C(=O)N[C@@H](CCO)C2=CC=C(C=C2)Cl)N)C3=NC=NC4=C3C=CN4 [Capivasertib] (first compound max 1 µM, 7x7, partner max 3 µM) | 0.182 | 0.676 | 0.36 | 0.997 | 0.25 | 0.223 | 0.323 | 0.433 | 0.345 |  | 0.242 | 0.212 | 0.825 | 0.351 | 0.637 | 0.772 | 0.161 | 0.262 | 1 | 0.19 |
